Experiments:
Format in all cases: in vivo
[1] = system: Sweet Potato Whitefly (Bemisia tabaci, BEMITA, SPW); experiment: Bioassay 2: sweet potato whitefly, cotton seedling foliar spray; conditions: AI alone, Wt % AI 0.0001, 7-9 days
Method: Stock solutions were prepared with F1 as well as for each of the active ingredients individually. Test solutions were prepared from the stock solutions. Test solutions were prepared containing F1, the individual active ingredients, and mixtures of F1 with each of the active ingredients. The test solutions for F1 and the individual active ingredients were prepared by adding 500 μL of stock solution to a 25 mL glass vial, then adding 500 μL of acetone, followed by the addition of 9 mL water with 0.025% Tween® 20 to create a 0.001% (w/v) solution. The test solutions containing mixtures of F1, and the individual active ingredients were prepared by adding 500 μL of the active ingredient stock solution to a 25 mL glass vial, followed by 500 μL of the F1 stock solution, then by the addition of 9 mL water with 0.025% Tween® 20 to create a test solution containing 0.001% (w/v) F1 and 0.001% (w/v) of the active ingredient. Each test solution was serially diluted to create desired doses of test solutions (0.001% (w/v), 0.0001% (w/v), 0.00001% (w/v), 0.000001% (w/v), 0.0000001% (w/v), and 0.00000001% (w/v)).
The test solutions were tested against SPW using the following procedure: Cotton seedlings grown in 3-inch pots, pruned so that only one true leaf remained, were used as test substrate. Adult B. tabaci were allowed to colonize the cotton plants and lay eggs for 24 hours after which all adults were removed from the plants using compressed air. Plants were monitored for egg development, and when crawler emergence was underway (>25% emergence based on visual examination using a microscope), the plants were sprayed using the test solutions and methods described above for green peach aphids (GPA). Treated plants were held in a holding room at approximately 25° C. and ambient relative humidity (RH) prior to grading. Evaluation was conducted by counting the number of developed 2-3 instar nymphs per plant under a microscope 7-9 days after treatment. Percent control was measured using Abbott's correction formula (W. S. Abbott, J. Econ. Entomol. 18 (1925), pp. 265-267) as follows:
where X=No. of live nymphs on solvent check plants and Y=No. of live nymphs on treated plants. In Table B2 the “Expected % Control” was calculated using the method described in Colby S. R., Weeds, 1967, 15, 20-22. Bioassay 3: Western Flower Thrips (Frankliniella occidentalis, FRANOC, “WFT”).

[2] = system: Western Flower Thrips (Frankliniella occidentalis, FRANOC, WFT); experiment: Bioassay 3: western flower thrips, cotton leaf disc dip; conditions: 3 days
Method: Stock solutions of F1 and various active ingredients were prepared initially at a concentration of 0.1 mg/mL using acetone as a diluent. Stock solutions were prepared with F1 as well as for each of the active ingredients individually. Test solutions were prepared from the stock solutions. Test solutions were prepared containing F1, the individual active ingredients, and mixtures of F1 with each of the active ingredients. The test solutions for F1 and the individual active ingredients were prepared by adding 500 μL of stock solution to a 25 mL glass vial, then adding 500 μL of acetone, followed by the addition of 9 mL water with 0.025% Tween® 20 to create a 0.0005% (w/v) solution. The test solutions containing mixtures of F1, and the individual active ingredients were prepared by adding 500 μL of the active ingredient stock solution to a 25 mL glass vial, followed by 500 μL of the F1 stock solution, then by the addition of 9 mL water with 0.025% Tween® 20 to create a test solution containing 0.0005% (w/v) F1 and 0.0005% (w/v) of the active ingredient. Each test solution was serially diluted to create desired doses of test solutions (0.0005% (w/v), 0.000125% (w/v), 0.00003125% (w/v), 0.0000078% (w/v), and 0.00000195% (w/v)).
The test solutions were tested against WFT using the following procedure: Leaf discs (2.7 cm in diameter) were cut from the true leaves of cotton plants. Leaf discs were dipped into the test solutions and shaken to ensure complete coverage of the leaf disc and then placed in Millipore® PetriSlides containing a filter paper disc. Treated leaf discs were air dried for approximately 1 hour. Each leaf disc was infested with 5 WFT (9-10-day old nymphs) by placement on each leaf disc, and the PetriSlides were capped to prevent escape. Each treatment was replicated three times and the test treatments were held at approximately 26° C. and ambient relative humidity (RH) prior to grading. Reference discs (solvent check) were treated with the diluent only. Evaluation was conducted by counting the number of live WFT under magnification 3 days after treatment. Percent control was measured using Abbott's correction formula (W. S. Abbott, J. Econ. Entomol. 18 (1925), pp. 265-267) as follows:
where X=No. of live nymphs on solvent check leaf discs and Y=No. of live nymphs on treated leaf discs. In Table B3 the “Expected % Control” was calculated using the method described in Colby S. R., Weeds, 1967, 15, 20-22. Bioassay 4: Corn Earworm (Helicoverpa zea, HELIZE, “CEW”), Fall Armyworm (Spodoptera frugiperda, LAPHFR, “FAW”), and Soybean Looper (Chrysodeixis includens, PSEPIN, “SBL”).

[3] = system: Corn Earworm (Helicoverpa zea, HELIZE, CEW); experiment: Bioassay 4: corn earworm, artificial diet, 128-cell tray; conditions: AI alone
Method: (§1) Stock solutions were prepared with F1 as well as for each of the active ingredients individually. Test solutions were prepared from the stock solutions. Test solutions were prepared containing F1, the individual active ingredients, and mixtures of F1 with each of the active ingredients. The test solution for F1 was prepared by adding 500 μL of the stock solution to a 25 mL glass vial, then adding 500 μL of a 9:1 mixture of acetone:water. The individual active ingredients were prepared by adding 500 μL of stock solution to a 25 mL glass vial, then adding 500 μL of a 9:1 mixture of acetone:water. The test solutions containing mixtures of F1, and the individual active ingredients were prepared by adding 500 μL of the active ingredient stock solution to a 25 mL glass vial, followed by 500 μL of the F1 stock solution, creating a test solution containing 0.04% (w/v) of F1 and 0.4% (w/v) of the active ingredient. Each test solution was serially diluted to create desired doses of test solutions (F1 at 0.04% (w/v), 0.004% (w/v), 0.0004% (w/v), 0.00004% (w/v), 0.000004% (w/v), and 0.0000004% (w/v) and active ingredients at 0.4% (w/v), 0.04% (w/v), 0.004% (w/v), 0.0004% (w/v), 0.00004% (w/v), and 0.000004% (w/v)).
(§2) The test solutions were tested against CEW, FAW, and SBL using the following procedure: an artificial lepidopteran diet (Multispecies Lepidopteran Diet, Southland Products) was distributed in 128-cell bioassay trays (Frontier Agricultural Sciences™). 50 μL of test solution was pipetted into a cell in the bioassay tray. (The test solution doses of 0.04% (w/v), 0.004% (w/v), 0.0004% (w/v), 0.00004% (w/v), 0.000004% (w/v), and 0.0000004% (w/v) translated to concentrations of 5, 0.5, 0.05, 0.005, 0.0005, and 0.00005 μg/cm^2 on the diet, respectively.) A reference treatment (solvent check) was treated with the diluent only. Each treatment was replicated 8 times for each species. A 2nd instar CEW, FAW, or SBL larva was placed on top of the diet in each cell and was contained with a clear perforated adhesive lid. Test trays were held at approximately 26° C. and ambient relative humidity (RH) prior to grading.
(§3) After 5 days, the number of live larvae were recorded from each cell and percent control was measured using Abbott's correction formula (W. S. Abbott, J. Econ. Entomol. 18 (1925), pp. 265-267) as follows:
(§4) where X=No. of live larvae on solvent check and Y=No. of live larvae on treated diet. In Table B4 the “Expected % Control” was calculated using the method described in Colby S. R., Weeds, 1967, 15, 20-22. Bioassay 5: Neotropical Brown Stink Bug (Euschistus heros, EUSCHE, “BSB”).

[4] = system: Fall Armyworm (Spodoptera frugiperda, LAPHFR, FAW); experiment: Bioassay 4: fall armyworm, artificial diet, 128-cell tray; conditions: AI alone
Method: as §1, §2, §3, §4

[5] = system: Soybean Looper (Chrysodeixis includens, PSEPIN, SBL); experiment: Bioassay 4: soybean looper, artificial diet, 128-cell tray; conditions: AI alone
Method: as §1, §2, §3, §4

[6] = system: Western Corn Rootworm (Diabrotica virgifera virgifera, DIABVI, WCR); experiment: Bioassay 8: western corn rootworm, soil drench, corn root protection; conditions: AI alone, UgActive AI 1; DIABVI, soil drench, 13 days
Method: Corn seeds were planted in steam pasteurized soil filled greenhouse pots. Western corn rootworm Diabrotica virgifera virgifera eggs supplied from the Corteva Agriscience in Johnston, IA US, were suspended in a 0.08% agar solution added into the soil. Stock solutions of F1 and active ingredients were prepared at a concentration of either 250 or 500 ugai/10 mL for F1 and active ingredients at the ratios of (F1:AI) 1:0.004; 1:0.01; 1:0.02; 1:0.04; 1:0.08; 1:0.1; 1:0.15; 1:0.2; 1:0.4; 1:2; or 1:4, using a 1:1 solution of acetone:water as a diluent. A soil application of solutions were applied as a 10 mL drench over the soil. Plants were grown in the greenhouse for 13 days at 25 C after which the roots were removed from the soil, washed, and measured to determine the length of the median nodal roots. The measured lengths were compared to the infested and un-infested untreated checks to determine the mean percent control offered to protect the corn roots.

[7] = system: Green Peach Aphid (Myzus persicae, MYZUPE, GPA); experiment: Bioassay 1: green peach aphid, cabbage seedling foliar spray; conditions: AI alone at the rate of Wt Ratio F1:AI 1:40000 (F1 0.04), 3 days
Method: Bioassay 1: Green Peach Aphid (Myzus persicae, MYZUPE, “GPA”).
Stock solutions of F1 and various active ingredients were prepared initially at a concentration of 4 milligrams per milliliter (mg/mL) for F1 and 0.1 mg/mL for the active ingredients, respectively, using a 1:1 mixture of acetone:methanol as a diluent. Stock solutions were prepared with F1 as well as for each of the active ingredients individually. Test solutions were prepared from the stock solutions. Test solutions were prepared containing F1, the individual active ingredients, and mixtures of F1 with each of the active ingredients. The test solutions for F1 and the individual active ingredients were prepared by adding 750 microliters (μL) of stock solution to a 25 mL glass vial, then adding 750 μL of 1:1 acetone:methanol solvent, followed by the addition of 13.5 mL water with 0.025% Tween® 20 to create a 0.0005% (weight/volume (w/v)) solution. The test solutions containing mixtures of F1, and the individual active ingredients were prepared by adding 750 μL of the active ingredient stock solution to a 25 mL glass vial, followed by 750 μL of the F1 stock solution, then by the addition of 13.5 mL water with 0.025% Tween® 20 to create a test solution containing 0.0005% (w/v) F1 and 0.0005% (w/v) of the active ingredient. Each test solution was serially diluted to create desired doses of test solutions (0.0005% (w/v), 0.000125% (w/v), 0.00003125% (w/v), 0.0000078% (w/v), 0.00000195% (w/v), and 0.0000005% (w/v)). In test solutions containing mixtures of F1 and the active ingredients, the active ingredients were diluted as described above, but the concentration of F1 was held constant (0.04% (w/v)).
The test solutions were tested against GPA using the following procedure: cabbage seedlings, grown in 3-inch pots with 2-3 small (3-5 centimeter (cm)) true leaves, were used as test substrate. The seedlings were infested with 20-50 GPA (wingless adult and nymph stages) one day prior to chemical application. Four pots with individual seedlings were used for each treatment. A hand-held aspirator-type sprayer was used for spraying a solution to both sides of […] leaves until runoff. Reference plants (solvent check) were sprayed with the diluent only (0.025% Tween® 20 and 10% acetone:methanol (1:1) in water). Treated plants were held in a holding room for three days at approximately 25° C. and ambient relative humidity (RH about 20% to about 45%) prior to grading. Evaluation was conducted by counting the number of live aphids per plant under a microscope three days after treatment. Percent control was measured using Abbott's correction formula (W. S. Abbott, J. Econ. Entomol. 18 (1925), pp. 265-267) as follows:
where X=No. of live aphids on solvent check plants and Y=No. of live aphids on treated plants. In Table B1 the “Expected % Control” was calculated using the method described in Colby S. R., Weeds, 1967, 15, 20-22. Bioassay 2: Sweet Potato Whitefly (Bemisia tabaci, BEMITA, “SPW”).

Compound	Average % Control AI [1] [%]	Average % Control AI ([2]; AI alone at 1:1 rate to F1 0.195 (10^-6 Wt %)) [%]	Average % Control AI ([2]; AI alone at 1:1 rate to F1 3.125 (10^-6 Wt %)) [%]	Average % Control AI ([3]; 0.000004 wt %) [%]	Average % Control AI ([3]; 0.00004 wt %) [%]	Average % Control AI ([4]; 0.000004 wt %) [%]	Average % Control AI ([4]; 0.00004 wt %) [%]	Average % Control AI ([5]; 0.000004 wt %) [%]	Average % Control AI ([5]; 0.00004 wt %) [%]	Average % Control AI [6] [%]	Average % Control AI [7] [%]
N#Cc1nn(-c2c(Cl)cc(C(F)(F)F)cc2Cl)c(N)c1[S+]([O-])C(F)(F)F (centres unmarked) [Fipronil]	8.9	9.5	42.9	0.0	0.0	0.0	0.0	0.0	0.0		
CN/C(=N\[N+](=O)[O-])NCc1cnc(Cl)s1 [Clothianidin]										14.8	
CNC(=O)c1cc(Cl)cc(C)c1NC(=O)c1cc(Br)nn1-c1ncccc1Cl [Chlorantraniliprole]	28.0			0.0	0.0	62.5		37.5			8.1
CO/N=C(/C1=NOCCO1)c1ccccc1Oc1ncnc(Oc2ccccc2Cl)c1F [Fluoxastrobin]										0.0	

Reference: patent US20260182575A1, “MOLECULES HAVING PESTICIDAL UTILITY AND INTERMEDIATES AND PROCESSES RELATED THERETO” (CORTEVA AGRISCIENCE LLC, priority 2022, published 2026)
